Experimental data as given in the supplement of paper PMC10331698.
± gives the standard deviation of the averaged measurements.

How the values were obtained:
Test in all cases: level (log10 ratio to DMSO vehicle control); higher = higher biomarker level / cell amount than vehicle control
[1] = compound: O=C(O)C=C(C(F)(F)F)C(F)(F)F [3,3-Bis(trifluoromethyl)-2-propenoic acid] (in DMSO)
Experimental: (§1)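 BioMAP Diversity Plus panel of 12 human primary cell co-culture systems (3C, 4H, LPS, SAg, BT, BF4T, BE3C, CASM3C, HDF3CGF, KF3CT, MyoF, Mphg). Compounds were added 1 h before stimulation and left for 24 h (MyoF 48 h; BT 72 h for soluble read-outs or 6 d for IgG). Biomarkers were read by ELISA, cytotoxicity by SRB, PBMC viability and proliferation by Alamar Blue. Each well value was divided by the mean of 8 DMSO control wells on the same plate and log10 transformed; duplicate blinded samples were tested at 4 concentrations.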

[2] = compound: O=C(O)C(F)(F)OC(F)(F)C(F)(F)OC(F)(F)C(F)(F)OC(F)(F)C(F)(F)C(F)(F)C(F)(F)F [Perfluoro-3,6,9-trioxatridecanoic acid] (in DMSO); conditions: 6700 nM
Experimental: as §1

[3] = compound: CCOC(=O)CC(=O)C(F)(F)C(F)(F)F [Ethyl pentafluoropropionyl acetate] (in DMSO)
Experimental: as §1

[4] = compound: C=C(C)C(=O)OCCC(F)(F)C(F)(F)C(F)(F)C(F)(F)C(F)(F)C(F)(F)C(F)(F)C(F)(F)F [8:2 Fluorotelomer methacrylate] (in DMSO)
Experimental: as §1

[5] = compound: CN(C(=O)C(F)(F)C(F)(F)C(F)(F)F)[Si](C)(C)C [N-Methyl-N-trimethylsilylheptafluorobutyramide] (in DMSO)
Experimental: as §1

[6] = compound: O=S(=O)(O)CCC(F)(F)C(F)(F)C(F)(F)C(F)(F)C(F)(F)C(F)(F)C(F)(F)C(F)(F)F [8:2 Fluorotelomer sulfonic acid] (in DMSO)
Experimental: as §1

[7] = compound: O=S(=O)(O)C(F)(F)C(F)(F)C(F)(F)C(F)(F)C(F)(F)C(F)(F)C(F)(F)F [Perfluoroheptanesulfonic acid] (in DMSO)
Experimental: as §1

Row | Test System | level (log10) ([1]; 6700 nM) | level (log10) ([1]; 20000 nM) | level (log10) ([1]; 60000 nM) | level (log10) [2] | level (log10) ([3]; 6700 nM) | level (log10) ([3]; 20000 nM) | level (log10) ([3]; 60000 nM) | level (log10) ([4]; 6700 nM) | level (log10) ([4]; 20000 nM) | level (log10) ([5]; 6700 nM) | level (log10) ([5]; 20000 nM) | level (log10) ([5]; 60000 nM) | level (log10) ([6]; 6700 nM) | level (log10) ([6]; 20000 nM) | level (log10) ([6]; 60000 nM) | level (log10) ([7]; 1500 nM) | level (log10) ([7]; 4400 nM) | level (log10) ([7]; 13000 nM) | level (log10) ([7]; 40000 nM)
1 | BE3C:CXCL8/IL-8 | -0.016 ± 0.0042 | -0.026 ± 0.0085 | -0.0075 ± 0.04 | -0.259 ± 0.0014 | 0.0095 ± 0.03 | 0.017 ± 0.021 | 0.032 ± 0.0014 | -0.002 ± 0.014 | -0.008 ± 0.0028 | 0.019 ± 0.054 | 0.0175 ± 0.061 | 0.055 ± 0.11 | -0.0045 ± 0.022 | -0.06 ± 0.0014 | -0.134 ± 0.005 | 0.0105 ± 0.018 | 0.02 ± 0.0099 | 0.0405 ± 0.019 | 0.0595 ± 0.057
2 | BE3C:CXCL9/MIG | -0.007 ± 0.014 | -0.007 ± 0.0057 | 0.005 ± 0.023 | -1.19 ± 0.017 | 0.001 ± 0.0099 | 0.001 ± 0.0028 | 0.006 ± 0.0028 | -0.01 ± 0.014 | -0.0095 ± 0.022 | 0.0065 ± 0.018 | 0.0005 ± 0.00071 | 0.004 ± 0.027 | -0.002 ± 0.0085 | -0.015 ± 0.0028 | -0.03 ± 0.011 | -0.011 ± 0.02 | -0.009 ± 0.025 | -0.006 ± 0.013 | -0.006 ± 0.016
3 | BE3C:CXCL10/IP-10 | -0.022 ± 0.027 | -0.0195 ± 0.026 | -0.0295 ± 0.00071 | -1.1 ± 0.023 | -0.004 ± 0.011 | -0.013 ± 0.0028 | -0.008 ± 0.0042 | -0.0005 ± 0.018 | -0.0105 ± 0.028 | -0.006 ± 0.0028 | 0.005 ± 0.0014 | 0.007 ± 0.011 | -0.0205 ± 0.012 | -0.122 ± 0.019 | -0.237 ± 0.02 | 0.0075 ± 0.0035 | 0.0055 ± 0.0078 | -0.01 ± 0.024 | -0.039 ± 0.016
4 | BE3C:CXCL11/I-TAC | -0.0375 ± 0.0092 | -0.033 ± 0.023 | -0.019 ± 0.011 | -0.992 ± 0.025 | 0.002 ± 0.028 | 0.002 ± 0.0099 | -0.0015 ± 0.0078 | 0.0215 ± 0.053 | 0.025 ± 0.078 | -0.01 ± 0.0071 | 0.003 ± 0.014 | 0.012 ± 0.031 | 0.0385 ± 0.0021 | 0.016 ± 0.0071 | -0.0915 ± 0.015 | -0.0095 ± 0.069 | 0.021 ± 0.038 | 0.0255 ± 0.011 | 0.0495 ± 0.025
5 | BE3C:EGFR | -0.015 ± 0.014 | -0.011 ± 0.0085 | -0.0015 ± 0.012 | -0.212 ± 0.022 | -0.006 ± 0.0099 | 0.0025 ± 0.005 | -0.006 ± 0.023 | -0.007 ± 0.02 | -0.01 ± 0.031 | -0.0065 ± 0.00071 | -0.0165 ± 0.013 | -0.01 ± 0.028 | 0.002 ± 0.0028 | -0.014 ± 0.018 | 0.004 ± 0.0099 | 0.019 ± 0.025 | -0.008 ± 0.0042 | -0.002 ± 0.023 | -0.012 ± 0.038
6 | BE3C:HLA-DR | -0.0175 ± 0.0064 | -0.0245 ± 0.011 | -0.0355 ± 0.016 | -0.8695 ± 0.0078 | 0.014 ± 0.023 | -0.006 ± 0.0014 | -0.0005 ± 0.005 | -0.004 ± 0.021 | 0.0085 ± 0.033 | -0.009 ± 0.0014 | -0.0105 ± 0.0021 | 0.009 ± 0.033 | -0.0175 ± 0.037 | -0.111 ± 0.005 | -0.255 ± 0.0014 | 0.01 ± 0.014 | -0.013 ± 0.016 | -0.01 ± 0.021 | -0.028 ± 0.033
7 | BE3C:IL-1alpha | 0.012 ± 0.02 | 0.0005 ± 0.0092 | 0.001 ± 0.023 | -0.469 ± 0.052 | 0.0125 ± 0.03 | -0.011 ± 0.044 | 0.0285 ± 0.005 | -0.018 ± 0.02 | -0.0005 ± 0.0078 | 0.0045 ± 0.005 | -0.0075 ± 0.019 | 0.032 ± 0.014 | 0.016 ± 0.027 | -0.0055 ± 0.0064 | -0.043 ± 0.037 | 0.0275 ± 0.005 | 0.006 | 0.001 ± 0.0099 | 0.039 ± 0.03
8 | BF4T:CCL2/MCP-1 | 0.0005 ± 0.0021 | -0.052 ± 0.031 | -0.0635 ± 0.0064 | -0.155 ± 0.11 | -0.006 ± 0.011 | -0.0145 ± 0.00071 | -0.0015 ± 0.0078 | -0.0005 ± 0.028 | -0.051 ± 0.031 | 0.002 ± 0.0014 | 0.002 ± 0.0042 | 0.018 ± 0.018 | 0.037 ± 0.023 | -0.019 ± 0.0028 | -0.002 ± 0.034 | 0.009 ± 0.041 | 0 ± 0.013 | -0.092 ± 0.028 | 0.016 ± 0.014
9 | BF4T:CCL26/Eotaxin-3 | -0.089 ± 0.03 | -0.124 ± 0.0014 | -0.126 ± 0.067 | -0.395 ± 0.018 | 0.014 ± 0.0014 | 0.003 ± 0.014 | 0.0015 ± 0.03 | -0.02 ± 0.0099 | -0.069 ± 0.013 | -0.0025 ± 0.035 | -0.0135 ± 0.015 | 0.0045 ± 0.0078 | -0.0635 ± 0.05 | -0.179 ± 0.05 | -0.203 ± 0.0099 | 0.053 ± 0.05 | 0.01 | -0.0715 ± 0.011 | -0.069 ± 0.058
10 | BF4T:CD54/ICAM-1 | -0.0195 ± 0.005 | -0.0205 ± 0.005 | -0.0075 ± 0.013 | -0.0705 ± 0.019 | -0.0075 ± 0.0064 | -0.003 ± 0.014 | -0.02 ± 0.0071 | -0.023 ± 0.0099 | 0.001 ± 0.0099 | -0.0145 ± 0.0064 | -0.0045 ± 0.023 | -0.0115 ± 0.00071 | -0.006 ± 0.0014 | -0.0175 ± 0.00071 | -0.0325 ± 0.013 | 0.009 ± 0.011 | 0.004 ± 0.017 | -0.0155 ± 0.0035 | 0.0125 ± 0.016
11 | BF4T:CD90 | -0.0205 ± 0.011 | -0.022 ± 0.0042 | -0.0235 ± 0.019 | 0.0045 ± 0.0021 | -0.009 ± 0.018 | -0.0015 ± 0.013 | -0.0135 ± 0.012 | -0.0165 ± 0.015 | 0 ± 0.0099 | -0.0225 ± 0.022 | -0.006 ± 0.0071 | 0.0065 ± 0.005 | -0.008 ± 0.0028 | -0.018 ± 0.0014 | -0.0355 ± 0.0092 | -0.004 ± 0.0014 | -0.004 | -0.027 ± 0.0085 | -0.0205 ± 0.013
12 | BF4T:CD106/VCAM-1 | -0.0755 ± 0.0064 | -0.0945 ± 0.005 | -0.047 ± 0.067 | -0.205 ± 0.067 | -0.0035 ± 0.016 | 0.0155 ± 0.013 | -0.037 ± 0.031 | -0.0225 ± 0.00071 | -0.0495 ± 0.022 | 0.0095 ± 0.025 | 0.0315 ± 0.015 | 0.0035 ± 0.026 | 0.0035 ± 0.035 | -0.0285 ± 0.03 | -0.041 ± 0.0028 | 0.017 ± 0.024 | 0.001 ± 0.0042 | -0.0765 ± 0.0064 | -0.094 ± 0.0099
13 | BF4T:CXCL8/IL-8 | -0.0135 ± 0.022 | -0.022 ± 0.0099 | 0.0345 ± 0.05 | 0.0165 ± 0.049 | 0.0095 ± 0.012 | -0.0015 ± 0.023 | 0.021 ± 0.011 | -0.026 ± 0.014 | -0.023 ± 0.021 | -0.008 ± 0.024 | -0.0025 ± 0.018 | 0.0025 ± 0.019 | 0.0015 ± 0.0035 | -0.0105 ± 0.0078 | -0.0055 ± 0.0078 | 0.015 ± 0.014 | 0.006 ± 0.0014 | 0.049 ± 0.0014 | 0.121 ± 0.02
14 | BF4T:IL-1alpha | -0.009 ± 0.0057 | -0.003 ± 0.0085 | -0.0065 ± 0.035 | -0.055 ± 0.013 | 0.017 ± 0.021 | 0.0035 ± 0.018 | 0.0315 ± 0.0035 | -0.009 ± 0.0057 | 0.008 ± 0.016 | -0.015 ± 0.016 | -0.0135 ± 0.016 | 0.015 ± 0.042 | 0.004 ± 0.016 | -0.01 ± 0.014 | 0.0065 ± 0.018 | 0.0205 ± 0.025 | 0.0055 ± 0.005 | 0.01 ± 0.0014 | 0.0205 ± 0.016
15 | BF4T:Keratin 8/18 | -0.012 ± 0.0085 | -0.012 ± 0.0028 | 0.007 ± 0.014 | -0.0195 ± 0.079 | 0.0085 ± 0.005 | 0.0275 ± 0.052 | 0.002 ± 0.016 | -0.019 ± 0.0028 | 0.0115 ± 0.016 | -0.0105 ± 0.052 | 0.0115 ± 0.03 | 0.013 ± 0.017 | 0.004 ± 0.0099 | -0.0005 ± 0.018 | 0.0245 ± 0.0078 | 0.009 ± 0.025 | -0.012 ± 0.013 | -0.027 ± 0.0014 | 0.0125 ± 0.015
